Measurements published in patent publication US20050209157A1, “Short bioactive peptides and methods for their use” (priority 2001, published 2005).
No end group written: not given here.

Legend:
[1] = in vitro; conditions: human, WI38 normal lung fibroblast cells, LD50 WI38, WI38 normal lung fibroblast line, MTT, 24 hours with peptide
[2] = tested on: WI38; conditions: MTT, 24 hours with peptide; for WI38 LD50: normal fibroblast line; for LD50 WI38: WI38 normal lung fibroblast line
[3] = tested on: BMKC; assay: Anti-cancer assay, MTT, LD50; type: cell-based; conditions: BMKC cloned melanoma line, 24 hours with peptide
Source text: (§1) Numbers are LD50 values (μg/mL).

[4] = tested on: PC3; assay: Anti-cancer assay, MTT, LD50; type: cell-based; conditions: 24 hours with peptide, prostate adenocarcinoma
Source text: as §1

[5] = tested on: HeLaS3; assay: Anti-cancer assay, MTT, LD50; type: cell-based; conditions: 24 hours with peptide, cervical carcinoma
Source text: as §1

[6] = tested on: MCF7; assay: Anti-cancer assay, MTT, LD50; type: cell-based; conditions: MCF7 breast adenocarcinoma line, MTT, 24 hours with peptide
Source text: as §1

[7] = tested on: H1299; assay: Anti-cancer assay, MTT, LD50; type: cell-based; conditions: 24 hours with peptide, lung large cell carcinoma
Source text: as §1

[8] = tested on: SW480; assay: Anti-cancer assay, MTT, LD50; type: cell-based; conditions: SW480 colon adenocarcinoma line, 24 hours with peptide
Source text: as §1

[9] = tested on: human red blood cells (RBC); assay: in vitro; type: cell-based; conditions: hemolytic assay, concentration at 50% hemolysis, 1 hour at 37° C.
[10] = tested on: Pseudomonas aeruginosa ATCC 9027; assay: Antimicrobial assay I, MIC by OD measurement; type: cell-based; conditions: 37° C. for 24 hours, absorbance 620 nm
[11] = tested on: Staphylococcus aureus ATCC 6538; assay: Antimicrobial assay I, MIC by OD measurement; type: cell-based; conditions: 37° C. for 24 hours, absorbance 620 nm
[12] = tested on: yeast (Saccharomyces cerevisiae); assay: Antimicrobial assay I, yeast assay in RPMI 1640; type: cell-based; conditions: RPMI 1640 media

| Substance | CC50 at 24 h [1] [mg/L] | WI38 LD50 [2] | LD50 BMKC [3] | PC3 LD50 [4] | HeLaS3 LD50 [5] | LD50 MCF7 [6] | H1299 LD50 [7] | LD50 SW480 [8] | LD50 [9] | paerug9027 (MIC) [10] | staph6538 (MIC) [11] | yeast (MIC or MFC) [12] [mg/L] | LD50 WI38 [2] |
| --- | --- | --- | --- | --- | --- | --- | --- | --- | --- | --- | --- | --- | --- |
| FAKLLAKLAKKFAL-NH2 [P120, FAKLLAKLAKKFAL-NH2] | 600 | 600 µg/mL | 660 µg/mL | > (> indicates greater than 1000) | 810 µg/mL | 730 µg/mL | 620 µg/mL | 630 µg/mL | > (> indicates greater than 1000) | 200 mg/L | 50 mg/L | 200 |  |
| FAKLLAKLAKKSL-NH2 [P127] | 760 | 760 µg/mL | 535 µg/mL | > (> indicates greater than 1000) | 610 µg/mL | 440 µg/mL | 770 µg/mL | 400 µg/mL | > (> indicates greater than 1000) | 25 mg/L | 100 mg/L | 100 |  |
| FAKIIAKIAKIAKKIL-NH2 [P139] | 550 | 550 µg/mL | 525 µg/mL | > (> indicates greater than 1000) | > (> indicates greater than 1000) | 625 µg/mL | 850 µg/mL | > (> indicates greater than 1000) | > (> indicates greater than 1000) | 25 mg/L | 50 mg/L | 200 |  |
| FAKLAKKALAKLL-NH2 [P148] | 380 | 380 µg/mL | 330 µg/mL | > (> indicates greater than 1000) | > (> indicates greater than 1000) | 315 µg/mL | 660 µg/mL | > (> indicates greater than 1000) | > (> indicates greater than 1000) | 200 mg/L | > (> indicates greater than 200 μg/mL) | 200 |  |
| FAKIIAKIAKKI-NH2 [P143] |  | > (> indicates greater than 1000) | > (> indicates greater than 1000) | > (> indicates greater than 1000) | > (> indicates greater than 1000) | > (> indicates greater than 1000) | > (> indicates greater than 1000) | > (> indicates greater than 1000) | > (> indicates greater than 1000) | 50 mg/L | 100 mg/L | 200 | > (> indicates greater than 1000) |
| KAKLF-NH2 [P130, KAKLF-NH2] |  | > (> indicates greater than 1000) | > (> indicates greater than 1000) | > (> indicates greater than 1000) | > (> indicates greater than 1000) | > (> indicates greater than 1000) | > (> indicates greater than 1000) | > (> indicates greater than 1000) | > (> indicates greater than 1000) | 200 mg/L | 200 mg/L | 200 | > (> indicates greater than 1000) |
| FAKLLAKLAKK-NH2 [P151] |  | > (> indicates greater than 1000) | > (> indicates greater than 1000) | > (> indicates greater than 1000) | > (> indicates greater than 1000) | > (> indicates greater than 1000) | > (> indicates greater than 1000) | > (> indicates greater than 1000) | > (> indicates greater than 1000) | > (> indicates greater than 200 μg/mL) | > (> indicates greater than 200 μg/mL) | 200 | > (> indicates greater than 1000) |
| FAKAIAKIAFGKGIGKVGKKLL-NH2 [P134] |  | > (> indicates greater than 1000) | > (> indicates greater than 1000) | > (> indicates greater than 1000) | > (> indicates greater than 1000) | > (> indicates greater than 1000) | > (> indicates greater than 1000) | 740 µg/mL | > (> indicates greater than 1000) | > (> indicates greater than 200 μg/mL) | 100 mg/L | 200 | > (> indicates greater than 1000) |
| FAKKLKKLAKKL-NH2 [P79] |  | > (> indicates greater than 1000) | 830 µg/mL | > (> indicates greater than 1000) | > (> indicates greater than 1000) | 540 µg/mL | > (> indicates greater than 1000) | > (> indicates greater than 1000) | > (> indicates greater than 1000) | 200 mg/L | 100 mg/L | 100 | > (> indicates greater than 1000) |
| FAKLWAKLAKKL-NH2 [P136] |  | > (> indicates greater than 1000) | 530 µg/mL | 900 µg/mL | 400 µg/mL | 500 µg/mL | 450 µg/mL | 600 µg/mL | > (> indicates greater than 1000) | 50 mg/L | 100 mg/L | 100 | > (> indicates greater than 1000) |
| FAKKLAKLAKKL-NH2 [P106] |  | > (> indicates greater than 1000) | 690 µg/mL | > (> indicates greater than 1000) | 700 µg/mL | 620 µg/mL | 920 µg/mL | 570 µg/mL | > (> indicates greater than 1000) | 25 mg/L | 100 mg/L | 100 | > (> indicates greater than 1000) |
| FAKKLAKALL-NH2 [P58] |  | > (> indicates greater than 1000) | > (> indicates greater than 1000) | > (> indicates greater than 1000) | > (> indicates greater than 1000) | > (> indicates greater than 1000) | > (> indicates greater than 1000) | > (> indicates greater than 1000) | > (> indicates greater than 1000) | 100 mg/L | 100 mg/L | 200 | > (> indicates greater than 1000) |
